Counter-ions that a name gives are not always drawn.
Columns and labels:
[1] = acute toxicity, LD50/30, injection into blood circulation, 30 days observation; type: in vivo, Swiss mice and Wistar rats; conditions: in vivo, iv; dose causing death of 50% of animals within 30 days; slow injection into the blood circulation during 3 to 5 minutes; mice and rats; probit analysis
Experimental: (§1) The acute toxicity values of the products prepared according to Examples 1 to 16 were determined on laboratory mice and rats in the following manner.
(§2) Solutions containing the compounds in various concentrations were prepared by using physiological saline solution or glucose solution of 5% by weight concentration and the active agents were administered in various concentrations into the blood circulation of the animals by injecting them slowly during 3 to 5 minutes. Groups consisting of 6 to 10 animals (Swiss mice and Wistar rats of both sexes) each were used for the various dose levels. […] The LD50/30 value (i.e. the dose causing the death of 50% of the experimental animals within 30 days) was determined from the number of animals died during this period by using probit analysis/D. J. Finney: Probit Analysis (2nd ed.) Cambridge University Press (1952)/. These values expressed in mmol/kg of body-weight for the active agents according to the invention are summarized in column (B) of Table 1.

[2] = radioactive isotope elimination-increasing effect, isotope into abdominal cavity, whole-body retention; type: in vivo, Swiss mice; conditions: for EI value: effectivity (isotope elimination as % related to control) multiplied by LD50/30, 0-5 weak, 5-50 medium, 50-100 good, above 100 excellent; for F factor: multiplication of isotope elimination relative to untreated animals, i.v. 50 to 100 μmol/kg, 30 to 60 minutes after isotope; for radioactivity excreted from the animal organism within 1 day / radioactivity excreted from the animal organism within 4 days / radioactivity excreted from the animal organism within 7 days: Sr-85 into abdominal cavity, single treatment, 100 μmol/kg (stated for Example 13); for radioactivity excreted from the animal organism within 1 day: control 15%; for radioactivity excreted from the animal organism within 4 days: control 25%; for radioactivity excreted from the animal organism within 7 days: control 30%
Text: The action of the compounds of formula (I) according to the invention, which manifests itself as an increase in the elimination of metal ions damaging the living organism, was investigated by using radioactive strontium or cerium ions on Swiss mice and Wistar rats of both sexes.
The elimination was studied on radioactive isotopes introduced in various routes to various sites, e.g. to the blood circulation, abdominal cavity, lungs, muscles or subcutaneous connective tissue of the experimental animals. The compound increasing the elimination of the isotopes was administered daily once or two times in the form of an injection, powder or liquid aerosol or plaster to the organism of the experimental animals. Thereafter, whole body activity measurements were performed and retention curves were taken up which then were compared to the results obtained in the control group.
The retention curves obtained were analysed on a computer. "Nonlinear Regression by the Code of BMDP-3R" (BMDP Statistical Software Manual, UCLA, Los Angeles, 1990, Chief Ed. W. J. Dixon) computer software was used for this purpose. It could be stated from the results obtained that the curves could be described by a two-component descending exponential function. Two data were calculated for characterizing the effectivity. One of these was the so-called F factor indicating the increase in the elimination in relation to the control and meaning the multiplication of the isotope elimination under effect of the test compound in relation to the untreated animals/see column (C) in Table 1/.
For the illustrative comparison of the compounds according to the invention additional characteristic data, the so-called EI values are given which were obtained by multiplying the extent of isotope elimination as percentage related to the control group (effectivity, E) with the acute toxicity value (LD50/30, innocuous, I)/see column (D) in Table 1/. Although the EI value is numerically not identical to the therapeutic ratio (safety index), it indicates in all cases to a weak or excellent activity of a product.
The radioactive isotope elimination-increasing effects of compounds prepared according to Examples 1 to 16 were compared on Swiss mice as described hereinafter.
An activity of 37 to 74 kBg (1 to 2 μCi) of radioactive strontium (Sr-85Cl2) or radioactive cerium (Ce-144Cl3), respectively, was administered into the abdominal cavity of the animals which were then divided into treatment groups consisting of 5 to 10 animals each. At 30 to 60 minutes after administration of the isotope, the animals of the treated groups were intravenously (i.v.) given the active agent used in an amount to achieve s concentration of 50 to 100 μmol/kg of body-weight in the animal organism for each treatment. The animals of the control groups were similarly treated with the carrier (sterile physiological saline or glucose solution of 5% by weight concentration) without active agent.
The amount of radioactivity introduced to the animal organism was determined immediately after administration of the isotope, thru these measurements were repeated daily or in every two the or three days in a device constructed for the purpose of the whole-body measurements on small animals. The counts observed were related to the starting activity value of the zero (0) day and a so-called retention/time correlation was obtained by considering the activity retained in the organism. The change of activity of the animal organism in the time is illustrated in FIG. 1 where the time (in days) elapsed after the treatment is shown on the abscissa and the whole-body retention as percentage is plotted on the ordinate. It can be seen that the rate of elimination of Sr-85 administered into the abdominal cavity of control animals was slow: within 1 day only 15%, within 4 days 25% and within 7 days 30% of the activity were eliminated from their organism and the elimination was even more delayed in the later period. […]

laboratory mice and rats = test: acute toxicity, LD50/30, injection into blood circulation, 30 days observation; type: in vivo, Swiss mice and Wistar rats; conditions: dose causing death of 50% of animals within 30 days, slow injection into the blood circulation during 3 to 5 minutes, mice and rats, probit analysis
Experimental: as §1, §2

`O=C([O-])C(C(=O)[O-])N1CCOCCOCCN(C(C(=O)[O-])C(=O)[O-])CCOCCOCC1.[K+].[K+].[K+].[K+]` [3/a, N,N'-bis(dicarboxymethyl)-1,4,10,13-tetraoxa-7,16-diazacyclooctadecane tetrapotassium salt] gave an LD50 at 720 h [1] of 333 µmol/kg, an EI value [2] of 12.30 and a F factor [2] of 2.3.
For `O=C([O-])C(C(=O)[O-])N1CCOCCOCCN(C(C(=O)[O-])C(=O)[O-])CCOCCOCC1.[Mg+2].[Na+].[Na+]` [Example 4, N,N'-bis(dicarboxymethyl)-1,4,10,13-tetraoxa-7,16-diazacyclooctadecane magnesium complex disodium salt], the “Acute toxicity LD50/30” value (laboratory mice and rats) was 0.211 mmol/kg, the EI value [2] was 7.30 and the F factor [2] was 2.3.
In the case of `O=C([O-])C(C(=O)[O-])N1CCOCCOCCN(C(C(=O)[O-])C(=O)[O-])CCOCCOCC1.[Ca+2].[Ca+2]` [Example 8, N,N'-bis(dicarboxymethyl)-1,4,10,13-tetraoxa-7,16-diazacyclooctadecane calcium complex calcium salt], the “Acute toxicity LD50/30” value (laboratory mice and rats) is reported as “above 1.5 mmol/kg”, the EI value [2] is reported as 58.00 and the F factor [2] is reported as 1.6.
For `O=C([O-])C(C(=O)[O-])N1CCOCCOCCN(C(C(=O)[O-])C(=O)[O-])CCOCCOCC1.[Na+].[Na+].[Na+].[Na+]` [1/b, N,N'-bis(dicarboxymethyl)-1,4,10,13-tetraoxa-7,16-diazacyclooctadecane tetrasodium salt], the “Acute toxicity LD50/30” value (laboratory mice and rats; 43200 min) was 0.379 mmol/kg, the EI value [2] was 9.66 and the F factor [2] was 2.8.
For `CC(C(=O)O)(C(=O)O)N1CCOCCOCCN(C(C)(C(=O)O)C(=O)O)CCOCCOCC1` [Example 15, N,N'-bis(1,1'-dicarboxyethyl)-1,4,10,13-tetraoxa-7,16-diazacyclooctadecanetetrasodium salt], the LD50 at 720 h [1] was 450 µmol/kg, the EI value [2] was 6.80 and the F factor [2] was 1.3.
In the case of `O=C([O-])C(C(=O)[O-])N1CCOCCOCCN(C(C(=O)[O-])C(=O)[O-])CCOCCOCC1.[K+].[K+].[K+].[K+]` [3/b, N,N'-bis(dicarboxymethyl)-1,4,10,13-tetraoxa-7,16-diazacyclooctadecane tetrapotassium salt], the “Acute toxicity LD50/30” value (laboratory mice and rats; 43200 min) is reported as 0.272 mmol/kg, the EI value [2] is reported as 8.90 and the F factor [2] is reported as 1.7.
`O=C(O)C(C(=O)O)N1CCOCCOCCN(C(C(=O)O)C(=O)O)CCOCCOCC1` [Example 2, N,N'-bis(dicarboxymethyl)-1,4,10,13-tetraoxa-7,16-diazacyclooctadecane tetrasodium salt containing disodium hydroxy malonate] showed an LD50 at 720 h [1] of 368 µmol/kg, an EI value [2] of 11.10 and a F factor [2] of 3.3.
In the case of “N,N'-bis(dicarboxymethyl)-1,4,10,13-tetraoxa-7,16-diazacyclooctadecane iron(II) complex disodium salt [Example 9]”, the “Acute toxicity LD50/30” value (laboratory mice and rats) is reported as 0.250 mmol/kg, the EI value [2] is reported as 8.25 and the F factor [2] is reported as 1.7.
With `O=C([O-])C(C(=O)[O-])N1CCOCCOCCN(C(C(=O)[O-])C(=O)[O-])CCOCCOCC1.[Na+].[Na+].[Zn+2]` [Example 10, N,N'-bis(dicarboxymethyl)-1,4,10,13-tetraoxa-7,16-diazacyclooctadecane zinc complex disodium salt] the “Acute toxicity LD50/30” value (laboratory mice and rats) was 0.091 mmol/kg, the EI value [2] was 3.20 and the F factor [2] was 2.3.
In the case of `N.N.O=C([O-])C(C(=O)[O-])N1CCOCCOCCN(C(C(=O)O)C(=O)O)CCOCCOCC1.[Ca+2]` [Example 7, N,N'-bis(dicarboxymethyl)-1,4,10,13-tetraoxa-7,16-diazacyclooctadecane calcium complex diammonium], the “Acute toxicity LD50/30” value (laboratory mice and rats) is reported as “above 2.5 mmol/kg”, the EI value [2] is reported as 65.00 and the F factor [2] is reported as 1.7.
For `CCC(C(=O)O)(C(=O)O)N1CCOCCOCCN(C(C(=O)O)C(=O)O)CCOCCOCC1` [Example 13, N-dicarboxymethyl-N'-(1,1'-dicarboxypropyl)-1,4,10,13-tetraoxa-7,16-diazacyclooctadecane tetrasodium salt sodium bromide double salt], the LD50 at 720 h [1] was 302 µmol/kg, the “radioactivity excreted from the animal organism within 1 day” value [2] was 40% and the “radioactivity excreted from the animal organism within 4 days” value [2] was 65%. For the same compound, the “radioactivity excreted from the animal organism within 7 days” value [2] was 67%, the EI value [2] was 13.30 and the F factor [2] was 2.1.
For “N,N'-bis(dicarboxymethyl)-1,4,10,13-tetraoxa-7,16-diazacyclooctadecane calcium complex disodium salt containing disodium hydroxymalonate and sodium chloride [6/a]”, the “Acute toxicity LD50/30” value (laboratory mice and rats) was “above 3.0 mmol/kg”, the EI value [2] was 158.00 and the F factor [2] was 3.9.
Work on `O=C([O-])C(C(=O)[O-])N1CCOCCOCCN(C(C(=O)[O-])C(=O)[O-])CCOCCOCC1.[Na+].[Na+].[Na+].[Na+]` [1/a, N,N'-bis(dicarboxymethyl)-1,4,10,13-tetraoxa-7,16-diazacyclooctadecane tetrasodium salt] yielded an LD50 at 720 h [1] of 327 µmol/kg, an EI value [2] of 5.40 and a F factor [2] of 1.8.
`O=C([O-])C(C(=O)[O-])N1CCOCCOCCN(C(C(=O)[O-])C(=O)O)CCOCCOCC1.[Na+].[Na+].[Na+]` [Example 11, N,N'-bis(dicarboxymethyl)-1,4,10,13-tetraoxa-7,16-diazacyclooctadecane trisodium salt] showed an LD50 at 720 h [1] of 111 µmol/kg, an EI value [2] of 2.90 and a F factor [2] of 2.6.
Compound `O=C(O)C(Cc1ccccc1)(C(=O)O)N1CCOCCOCCN(C(Cc2ccccc2)(C(=O)O)C(=O)O)CCOCCOCC1` [Example 16, N,N'-bis(benzyl-dicarboxymethyl)-1,4,10,13-tetraoxa-7,16-diazacyclooctadecane tetrasodium salt sodium bromide double salt] has an LD50 at 720 h [1] of 470 µmol/kg, an EI value [2] of 7.10 and a F factor [2] of 1.3.
In the case of “N,N'-bis(dicarboxymethyl)-1,4,10,13-tetraoxa-7,16-diazacyclooctadeoane calcium complex disodium salt containing sodium chloride [Example 5]”, the “Acute toxicity LD50/30” value (laboratory mice and rats) is reported as “above 2.5 mmol/kg”, the “radioactivity excreted from the animal organism within 1 day” value [2] is reported as 81% and the “radioactivity excreted from the animal organism within 4 days” value [2] is reported as 84%. The “radioactivity excreted from the animal organism within 7 days” value [2] was 85%, the EI value [2] was 145.00 and the F factor [2] was 3.7.
With `CC(C(=O)[O-])(C(=O)[O-])N1CCOCCOCCN(C(C(=O)[O-])C(=O)[O-])CCOCCOCC1.[Na+].[Na+].[Na+].[Na+]` [Example 12, N-dicarboxymethyl-N'-(1,1'-dicarboxyethyl)-1,4,10,13-tetraoxa-7,16-diazacyclooctadecane tetrasodium salt] the LD50 at 720 h [1] was 305 µmol/kg, the EI value [2] was 7.90 and the F factor [2] was 1.5.
